Results published in publication PMC7960226 (Science (New York, N.Y.), 2020).
Where two headings read alike, the source gives them in different places. Each block holds one molecule with its values, some of them ahead of it.

Experiments:
SLC22A6 = SLC22A6 (Homo sapiens, UniProt Q4U2R8); experiment: in vitro transporter assay, SLC22A6; details: Table 1, predicted target SLC22A6
PDE3A = PDE3A (Homo sapiens, UniProt Q14432); experiment: safety panel assay, PDE3A; type: biochemical; details: Table 2, PDE3A; accurate to ±20%
PDE4D = PDE4D (Homo sapiens, UniProt Q08499); experiment: in vitro assay, PDE4D; type: biochemical; details: Table 2, PDE4D; accurate to ±20%
SLCO2B1 = target: T1, SLCO2B1 (Homo sapiens, UniProt O94956); experiment: in vitro transporter inhibition, SLCO2B1; type: biochemical; details: Table 2, SLCO2B1; accurate to ±20%
T1 sequence (O94956 1-709): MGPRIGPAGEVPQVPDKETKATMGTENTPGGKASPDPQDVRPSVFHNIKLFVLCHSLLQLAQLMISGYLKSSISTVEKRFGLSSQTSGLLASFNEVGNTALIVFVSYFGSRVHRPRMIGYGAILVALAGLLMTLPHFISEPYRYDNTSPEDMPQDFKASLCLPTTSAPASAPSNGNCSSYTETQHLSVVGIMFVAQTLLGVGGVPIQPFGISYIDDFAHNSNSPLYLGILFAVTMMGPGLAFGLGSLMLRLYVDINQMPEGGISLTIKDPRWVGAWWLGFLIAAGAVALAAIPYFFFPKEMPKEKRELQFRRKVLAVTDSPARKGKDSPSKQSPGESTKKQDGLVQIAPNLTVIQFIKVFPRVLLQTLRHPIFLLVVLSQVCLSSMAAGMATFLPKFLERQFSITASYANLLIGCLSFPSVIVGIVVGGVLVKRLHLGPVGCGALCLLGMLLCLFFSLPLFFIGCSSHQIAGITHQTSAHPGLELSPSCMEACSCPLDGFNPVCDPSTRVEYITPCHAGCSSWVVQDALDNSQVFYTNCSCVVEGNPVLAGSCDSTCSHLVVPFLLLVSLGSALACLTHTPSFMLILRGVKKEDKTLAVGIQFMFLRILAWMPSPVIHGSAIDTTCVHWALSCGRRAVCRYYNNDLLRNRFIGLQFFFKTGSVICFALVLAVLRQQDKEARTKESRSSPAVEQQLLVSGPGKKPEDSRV

PRMT1 = PRMT1 (Homo sapiens, UniProt Q99873); details: Table 1, predicted target PRMT1
DRD1 = DRD1 (Homo sapiens, UniProt P21728); type: binding; details: Table 2, DRD1; accurate to ±20%
DRD1, sequence (P21728 whole entry, species assumed): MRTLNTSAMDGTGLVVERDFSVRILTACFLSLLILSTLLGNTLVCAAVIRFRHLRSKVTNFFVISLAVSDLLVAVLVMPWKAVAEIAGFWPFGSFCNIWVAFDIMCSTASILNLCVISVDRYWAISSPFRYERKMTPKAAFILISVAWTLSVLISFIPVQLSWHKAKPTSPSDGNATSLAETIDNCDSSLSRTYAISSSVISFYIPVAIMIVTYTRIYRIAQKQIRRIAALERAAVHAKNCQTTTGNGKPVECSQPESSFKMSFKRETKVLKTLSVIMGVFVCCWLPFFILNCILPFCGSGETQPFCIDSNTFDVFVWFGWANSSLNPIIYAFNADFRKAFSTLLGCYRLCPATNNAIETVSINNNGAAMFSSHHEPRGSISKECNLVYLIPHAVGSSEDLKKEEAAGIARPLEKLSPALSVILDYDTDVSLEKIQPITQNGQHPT

OPRM1 = OPRM1 (Homo sapiens, UniProt P35372); experiment: safety panel assay, OPRM1; type: binding; details: Table 2, OPRM1 (OPRM); accurate to ±20%
OPRM1, sequence (P35372 whole entry, species assumed): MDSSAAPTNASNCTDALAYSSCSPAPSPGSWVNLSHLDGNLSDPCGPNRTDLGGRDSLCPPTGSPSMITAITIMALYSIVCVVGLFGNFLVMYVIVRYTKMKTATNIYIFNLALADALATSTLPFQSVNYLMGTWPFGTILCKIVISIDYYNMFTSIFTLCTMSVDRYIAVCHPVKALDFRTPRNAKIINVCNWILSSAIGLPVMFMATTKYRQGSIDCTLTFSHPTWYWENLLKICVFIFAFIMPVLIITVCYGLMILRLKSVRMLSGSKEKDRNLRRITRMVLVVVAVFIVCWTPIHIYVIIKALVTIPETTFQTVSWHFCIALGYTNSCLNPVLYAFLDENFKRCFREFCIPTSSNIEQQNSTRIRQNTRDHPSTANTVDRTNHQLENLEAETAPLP

ADRA1A = target: T2, ADRA1A (Homo sapiens, UniProt P35348); details: Table 2, ADRA1A; accurate to ±20%
T2 sequence (P35348 1-466): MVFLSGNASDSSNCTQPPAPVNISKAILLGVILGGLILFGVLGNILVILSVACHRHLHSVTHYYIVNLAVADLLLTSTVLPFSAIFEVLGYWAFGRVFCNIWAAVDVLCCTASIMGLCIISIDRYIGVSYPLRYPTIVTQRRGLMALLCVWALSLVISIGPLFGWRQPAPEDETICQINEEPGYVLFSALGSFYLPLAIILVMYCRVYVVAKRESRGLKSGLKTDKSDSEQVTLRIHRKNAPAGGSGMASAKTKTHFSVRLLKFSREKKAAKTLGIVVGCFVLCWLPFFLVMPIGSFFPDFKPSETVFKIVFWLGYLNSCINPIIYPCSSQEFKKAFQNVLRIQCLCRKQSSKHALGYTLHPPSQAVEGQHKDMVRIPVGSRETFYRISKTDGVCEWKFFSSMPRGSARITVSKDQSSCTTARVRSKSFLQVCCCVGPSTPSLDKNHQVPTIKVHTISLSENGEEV

CHRM2 = CHRM2 (Homo sapiens, UniProt P08172); details: Table 2, CHRM2; accurate to ±20%
CHRM2, sequence (P08172 whole entry, species assumed): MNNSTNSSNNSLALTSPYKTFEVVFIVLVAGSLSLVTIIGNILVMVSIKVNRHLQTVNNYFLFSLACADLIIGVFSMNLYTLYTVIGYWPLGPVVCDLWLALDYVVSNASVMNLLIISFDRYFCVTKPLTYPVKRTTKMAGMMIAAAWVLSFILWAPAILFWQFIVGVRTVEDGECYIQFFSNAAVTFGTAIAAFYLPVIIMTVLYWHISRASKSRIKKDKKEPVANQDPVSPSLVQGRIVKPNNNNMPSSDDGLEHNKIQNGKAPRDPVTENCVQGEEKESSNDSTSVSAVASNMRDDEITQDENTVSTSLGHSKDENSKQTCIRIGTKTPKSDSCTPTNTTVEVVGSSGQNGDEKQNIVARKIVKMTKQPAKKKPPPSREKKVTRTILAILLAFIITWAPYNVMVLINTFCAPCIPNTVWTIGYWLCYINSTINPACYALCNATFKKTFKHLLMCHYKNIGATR

ADORA3 = ADORA3 (Homo sapiens, UniProt P0DMS8); details: Table 2, ADORA3; accurate to ±20%
GABRA1 = GABRA1 (Homo sapiens, UniProt P14867); experiment: safety panel assay, GABRA1; type: binding; details: Table 2, GABRA1; accurate to ±20%
[1] = tested on: BioMAP Diversity PLUS panel; experiment: BioMAP Diversity PLUS panel of cell-based systems
KCNH2 = KCNH2 (Homo sapiens, UniProt Q12809)
KCNH2, sequence (Q12809 whole entry): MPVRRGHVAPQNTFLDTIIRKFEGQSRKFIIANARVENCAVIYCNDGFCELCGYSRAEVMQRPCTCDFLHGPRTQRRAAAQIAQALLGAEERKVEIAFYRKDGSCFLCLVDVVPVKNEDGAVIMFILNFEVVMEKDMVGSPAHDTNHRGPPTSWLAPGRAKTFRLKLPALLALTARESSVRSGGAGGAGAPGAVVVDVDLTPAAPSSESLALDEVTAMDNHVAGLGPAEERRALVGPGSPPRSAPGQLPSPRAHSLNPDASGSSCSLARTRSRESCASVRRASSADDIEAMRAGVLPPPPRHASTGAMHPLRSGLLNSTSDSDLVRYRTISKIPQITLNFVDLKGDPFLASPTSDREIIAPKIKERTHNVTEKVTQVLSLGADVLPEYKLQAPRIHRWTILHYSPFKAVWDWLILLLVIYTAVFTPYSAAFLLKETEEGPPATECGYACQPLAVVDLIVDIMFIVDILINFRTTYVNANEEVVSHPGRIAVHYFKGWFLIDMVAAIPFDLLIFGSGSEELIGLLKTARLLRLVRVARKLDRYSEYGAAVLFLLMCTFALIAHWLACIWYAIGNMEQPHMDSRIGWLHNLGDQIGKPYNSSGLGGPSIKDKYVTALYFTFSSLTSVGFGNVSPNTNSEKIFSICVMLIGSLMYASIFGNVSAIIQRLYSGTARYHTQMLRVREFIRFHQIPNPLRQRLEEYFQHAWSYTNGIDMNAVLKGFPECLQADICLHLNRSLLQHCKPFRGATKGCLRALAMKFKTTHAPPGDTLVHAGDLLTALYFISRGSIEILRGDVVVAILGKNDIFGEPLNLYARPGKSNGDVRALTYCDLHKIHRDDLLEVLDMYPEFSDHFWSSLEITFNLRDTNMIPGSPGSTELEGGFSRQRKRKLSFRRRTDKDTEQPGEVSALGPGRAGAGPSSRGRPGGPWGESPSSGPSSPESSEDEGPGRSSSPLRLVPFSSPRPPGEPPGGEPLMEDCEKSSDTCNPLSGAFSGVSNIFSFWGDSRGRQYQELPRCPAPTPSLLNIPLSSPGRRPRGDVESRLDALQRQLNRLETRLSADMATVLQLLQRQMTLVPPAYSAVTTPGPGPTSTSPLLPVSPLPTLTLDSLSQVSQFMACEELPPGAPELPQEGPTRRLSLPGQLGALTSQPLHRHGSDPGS

ACHE = ACHE (Homo sapiens, UniProt P22303); details: Table 2, ACHE; accurate to ±20%
HRH3 = HRH3 (Homo sapiens, UniProt Q9Y5N1); details: Table 2, HRH3; accurate to ±20%
PTGS2 = target: T3, PTGS2 (Homo sapiens, UniProt P35354); experiment: safety panel assay, PTGS2; type: biochemical; details: Table 2, PTGS2; accurate to ±20%
T3 sequence (P35354 18-604): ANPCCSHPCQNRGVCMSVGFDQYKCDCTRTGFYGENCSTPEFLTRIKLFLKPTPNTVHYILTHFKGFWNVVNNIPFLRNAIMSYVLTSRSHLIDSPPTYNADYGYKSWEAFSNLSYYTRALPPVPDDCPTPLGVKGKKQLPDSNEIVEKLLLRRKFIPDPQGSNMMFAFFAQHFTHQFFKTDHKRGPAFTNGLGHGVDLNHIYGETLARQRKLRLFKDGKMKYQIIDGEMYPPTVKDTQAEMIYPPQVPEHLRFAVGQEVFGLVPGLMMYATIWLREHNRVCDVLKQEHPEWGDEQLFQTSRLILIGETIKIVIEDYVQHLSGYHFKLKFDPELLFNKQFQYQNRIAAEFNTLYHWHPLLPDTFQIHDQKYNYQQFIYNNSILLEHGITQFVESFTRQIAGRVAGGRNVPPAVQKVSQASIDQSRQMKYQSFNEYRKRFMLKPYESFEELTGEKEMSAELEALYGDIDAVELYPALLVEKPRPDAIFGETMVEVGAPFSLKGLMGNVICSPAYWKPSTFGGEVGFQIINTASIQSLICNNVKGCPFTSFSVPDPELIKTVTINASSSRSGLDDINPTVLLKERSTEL

SLC18A2 = SLC18A2 (Homo sapiens, UniProt Q05940); experiment: transporter inhibition, SLC18A2; type: biochemical; details: Table 2, SLC18A2; accurate to ±20%
SLC18A2, sequence (Q05940 whole entry, species assumed): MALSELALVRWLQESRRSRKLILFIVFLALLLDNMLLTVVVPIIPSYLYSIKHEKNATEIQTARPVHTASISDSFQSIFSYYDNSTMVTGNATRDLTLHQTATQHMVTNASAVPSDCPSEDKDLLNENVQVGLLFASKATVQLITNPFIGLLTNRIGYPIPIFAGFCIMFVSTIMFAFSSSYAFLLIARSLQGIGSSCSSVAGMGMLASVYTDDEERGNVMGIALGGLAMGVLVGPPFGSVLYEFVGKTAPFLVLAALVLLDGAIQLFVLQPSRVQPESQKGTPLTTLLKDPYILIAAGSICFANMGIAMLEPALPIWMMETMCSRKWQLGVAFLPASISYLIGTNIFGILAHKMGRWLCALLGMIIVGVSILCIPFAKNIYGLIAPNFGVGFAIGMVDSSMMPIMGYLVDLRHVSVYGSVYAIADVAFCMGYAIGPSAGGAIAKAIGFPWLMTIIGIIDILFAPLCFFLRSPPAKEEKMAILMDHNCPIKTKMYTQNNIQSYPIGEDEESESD

PTGS1 = PTGS1 (Homo sapiens, UniProt P23219); details: Table 2, PTGS1; accurate to ±20%
CHRM1 = target: T4, CHRM1 (Homo sapiens, UniProt P11229); details: Table 2, CHRM1; an agonist effect was observed; accurate to ±20%
T4 sequence (P11229 1-460): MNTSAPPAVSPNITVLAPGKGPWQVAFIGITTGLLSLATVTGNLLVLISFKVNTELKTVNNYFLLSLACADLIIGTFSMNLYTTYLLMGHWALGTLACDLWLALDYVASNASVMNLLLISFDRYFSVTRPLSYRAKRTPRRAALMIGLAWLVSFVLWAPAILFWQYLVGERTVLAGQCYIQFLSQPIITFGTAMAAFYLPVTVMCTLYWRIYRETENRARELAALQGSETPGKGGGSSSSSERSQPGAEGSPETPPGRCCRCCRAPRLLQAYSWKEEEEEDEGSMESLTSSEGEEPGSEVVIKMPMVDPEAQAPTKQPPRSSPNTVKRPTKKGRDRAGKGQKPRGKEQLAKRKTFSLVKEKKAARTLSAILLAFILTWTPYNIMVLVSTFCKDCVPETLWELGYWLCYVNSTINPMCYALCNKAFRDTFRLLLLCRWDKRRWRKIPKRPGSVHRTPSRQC

SLC6A3 = SLC6A3 (Homo sapiens, UniProt Q01959); experiment: safety panel assay, SLC6A3; type: biochemical; details: Table 2, SLC6A3; accurate to ±20%
SLC6A2 = SLC6A2 (Homo sapiens, UniProt P23975); details: Table 2, SLC6A2; accurate to ±20%
DRD3 = DRD3 (Homo sapiens, UniProt P35462); details: Table 2, DRD3; accurate to ±20%
TY3H = TY3H (Homo sapiens, UniProt P07101); experiment: in vitro assay, TY3H; type: biochemical; details: Table 2, TY3H; accurate to ±20%
[2] = Madin-Darby canine kidney permeability assay; details: dog, MDCK
ALOX5 = ALOX5 (Homo sapiens, UniProt P09917); experiment: in vitro assay, ALOX5; type: biochemical
ALOX5, sequence (P09917 whole entry, species assumed): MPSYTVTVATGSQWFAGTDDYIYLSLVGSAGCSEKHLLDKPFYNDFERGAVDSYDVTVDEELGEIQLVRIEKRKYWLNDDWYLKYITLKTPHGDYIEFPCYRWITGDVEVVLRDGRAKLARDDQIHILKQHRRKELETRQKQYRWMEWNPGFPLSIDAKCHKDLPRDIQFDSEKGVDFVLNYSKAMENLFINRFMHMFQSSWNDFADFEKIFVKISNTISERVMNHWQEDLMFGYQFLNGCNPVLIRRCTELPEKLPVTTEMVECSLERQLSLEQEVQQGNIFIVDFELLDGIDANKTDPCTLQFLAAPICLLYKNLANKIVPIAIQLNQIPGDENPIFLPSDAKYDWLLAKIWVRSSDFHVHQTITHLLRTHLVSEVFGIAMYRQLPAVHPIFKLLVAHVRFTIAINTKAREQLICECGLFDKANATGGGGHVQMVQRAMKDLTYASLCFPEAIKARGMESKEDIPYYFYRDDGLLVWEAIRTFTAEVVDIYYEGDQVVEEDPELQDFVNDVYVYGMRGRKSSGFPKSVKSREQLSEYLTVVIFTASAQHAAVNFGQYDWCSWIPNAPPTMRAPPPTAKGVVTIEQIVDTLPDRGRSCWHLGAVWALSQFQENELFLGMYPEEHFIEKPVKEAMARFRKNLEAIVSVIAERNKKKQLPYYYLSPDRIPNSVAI

COMT = COMT (Homo sapiens, UniProt P21964); experiment: in vitro inhibition of COMT
COMT, sequence (P21964 whole entry): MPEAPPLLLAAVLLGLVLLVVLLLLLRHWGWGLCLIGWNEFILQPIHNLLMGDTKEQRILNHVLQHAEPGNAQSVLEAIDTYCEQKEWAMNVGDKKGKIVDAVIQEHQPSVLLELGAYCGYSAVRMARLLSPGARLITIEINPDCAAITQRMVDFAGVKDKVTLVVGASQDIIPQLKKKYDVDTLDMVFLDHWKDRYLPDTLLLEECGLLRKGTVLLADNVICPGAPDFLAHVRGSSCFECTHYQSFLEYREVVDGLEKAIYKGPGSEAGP

[3] = Pharmacokinetics in rats after i.v. and oral administration; details: for Cmax: 10 mg/kg, oral 10 mg/kg
KDM4C = KDM4C (Homo sapiens, UniProt Q9H3R0); experiment: in vitro assay, KDM4C; type: biochemical; details: Table 2, KDM4C; accurate to ±20%
KDM4C, sequence (Q9H3R0 whole entry, species assumed): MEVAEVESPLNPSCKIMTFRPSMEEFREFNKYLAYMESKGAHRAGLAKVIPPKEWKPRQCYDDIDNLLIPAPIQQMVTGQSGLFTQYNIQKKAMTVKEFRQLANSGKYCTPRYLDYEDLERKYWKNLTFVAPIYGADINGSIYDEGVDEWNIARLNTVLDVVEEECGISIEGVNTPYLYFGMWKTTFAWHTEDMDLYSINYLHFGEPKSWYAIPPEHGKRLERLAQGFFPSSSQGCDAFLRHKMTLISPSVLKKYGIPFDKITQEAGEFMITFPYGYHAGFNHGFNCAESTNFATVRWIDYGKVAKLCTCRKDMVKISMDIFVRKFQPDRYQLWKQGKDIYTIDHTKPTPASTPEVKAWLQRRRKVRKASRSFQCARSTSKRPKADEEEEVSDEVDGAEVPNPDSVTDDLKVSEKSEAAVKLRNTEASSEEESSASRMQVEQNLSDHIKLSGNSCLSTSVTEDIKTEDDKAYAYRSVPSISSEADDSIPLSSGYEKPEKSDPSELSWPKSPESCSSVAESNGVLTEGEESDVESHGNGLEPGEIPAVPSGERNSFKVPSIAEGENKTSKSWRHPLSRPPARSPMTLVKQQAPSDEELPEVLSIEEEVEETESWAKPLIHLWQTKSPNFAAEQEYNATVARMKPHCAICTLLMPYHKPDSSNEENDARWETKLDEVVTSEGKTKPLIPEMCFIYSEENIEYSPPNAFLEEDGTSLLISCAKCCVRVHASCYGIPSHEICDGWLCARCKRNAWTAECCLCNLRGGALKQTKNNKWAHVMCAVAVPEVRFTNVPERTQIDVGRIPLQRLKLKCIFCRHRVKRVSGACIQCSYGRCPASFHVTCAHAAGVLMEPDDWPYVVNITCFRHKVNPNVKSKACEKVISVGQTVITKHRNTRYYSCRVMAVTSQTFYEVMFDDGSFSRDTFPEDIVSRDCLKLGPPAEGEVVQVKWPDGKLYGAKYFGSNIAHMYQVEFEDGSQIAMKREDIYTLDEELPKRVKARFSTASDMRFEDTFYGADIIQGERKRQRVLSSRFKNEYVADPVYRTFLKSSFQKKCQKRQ

FTO = FTO (Homo sapiens, UniProt Q9C0B1); experiment: in vitro assay, FTO; type: biochemical; details: Table 2, FTO; accurate to ±20%

SMILES: O=C([O-])c1c(Cl)c(Cl)c(Cl)c(Cl)c1-c1c2cc(Br)c(=O)c(Br)c-2oc2c(Br)c([O-])c(Br)cc12.[Na+].[Na+] [D&C Red No. 28, Phloxine B]
Ki/IC50 (SLC22A6): 64 nM
Ki/IC50 Or EC50 (PDE3A): 130 nM
Ki/IC50 Or EC50 (PDE4D): 940 nM
Ki/IC50 Or EC50 (SLCO2B1): 600 nM
Ki/IC50 (PRMT1): 700 nM
Ki/IC50 Or EC50 (DRD1): 590 nM
Ki/IC50 Or EC50 (OPRM1): 820 nM
Ki/IC50 Or EC50 (ADRA1A): 480 nM
Ki/IC50 Or EC50 (CHRM2): 680 nM
Ki/IC50 Or EC50 (ADORA3): 480 nM

SMILES: O=C([O-])C1=NN(c2ccc(S(=O)(=O)[O-])cc2)C(=O)C1N=Nc1ccc(S(=O)(=O)[O-])cc1.[Na+].[Na+].[Na+] (stereo not drawn) [FD&C Yellow No. 5 (Tartrazine), Tartrazine]
Ki/IC50 Or EC50 (GABRA1): 13000 nM
activity in the BioMAP cell-based systems ([1]; 1.1, 3.3, 10, 30 μM): no measurable activity
Ki/IC50 Or EC50 (DRD1): 23000 nM
Ki/IC50 Or EC50 (OPRM1): 16000 nM

SMILES: CN(C)c1ccc2nc3ccc(=[N+](C)C)cc-3sc2c1 [Methylene Blue]
Ki/IC50 Or EC50 (KCNH2; human): 0.090 0.19 0.88 27.5 μM
Ki/IC50 Or EC50 (ACHE): 90 nM
Ki/IC50 Or EC50 (HRH3): 880 nM
Ki/IC50 Or EC50 (CHRM2): 190 nM

SMILES: CCCCCCCC/C=C\CCCCCCCC(=O)O [Oleic acid]
Ki/IC50 Or EC50 (PTGS2): 3500 nM
Ki/IC50 Or EC50 (SLC18A2): 4700 nM
Ki/IC50 Or EC50 (PTGS1): 6700 nM

SMILES: CC(=O)[O][Hg][c]1ccccc1 [Phenylmercuric acetate]
Ki/IC50 Or EC50 (KCNH2; Table 2, KCNH2, accurate to ±20%): 6.2 µM
Ki/IC50 Or EC50 (CHRM1): 8100 nM
Ki/IC50 Or EC50 (SLC6A3): 1800 nM
Ki/IC50 Or EC50 (SLC6A2): 1700 nM
Ki/IC50 Or EC50 (SLC18A2): 360 nM
Ki/IC50 Or EC50 (DRD3): 24 nM
Ki/IC50 Or EC50 (DRD1): 2200 nM

Ki/IC50 Or EC50 (TY3H): 1900 nM
Papp [2]: 11.7 ×10⁻⁶ cm/s
IC50 (ALOX5): 430 nM
Ki/IC50 Or EC50 (ALOX5; Table 2, ALOX5, accurate to ±20%): 430 nM
IC50 (COMT): 15 nM
Ki/IC50 (COMT; Table 1, predicted target COMT): 15 nM
half-life ([3]; rat, blood, iv, 1 mg/kg): 4.9 h
Cmax ([3]; rat, blood, po, Oral Cmax, rats): 5 nM
i.v. AUC 0–24 (d.n.) ([3]; rats, i.v. 1 mg/kg, dose normalized): 6908 nM-hour
Cmax ([3]; read-out: Oral Cmax, rats, blood): < 8.9 nM
Ki/IC50 Or EC50 (KDM4C): 39000 nM
Ki/IC50 Or EC50 (FTO): 3000 nM
SMILES: CCCOC(=O)c1cc(O)c(O)c(O)c1 [Propyl gallate]
Ki/IC50 Or EC50 (PTGS2): 7200 nM
effect on proliferation ([1]; B and T cells, coronary artery smooth muscle cells, endothelial cells, fibroblasts, at 10 or 30 μM): antiproliferative
